Data set [1] deals with Zika virus, FSS 13025 strain (ZIKV, Cambodia 2010). Description: Yield reduction assay followed by plaque assay in Vero cells, ZIKV Cambodia 2010. The settings on record: for IC50: Zika virus, 96 h, read-out: ZIKV, Cambodian 2010 IC50; for IC50 (summary in words): summary of Table 3. The data set is classed as cell-based. The procedure: (§1) The iminosugar compounds set forth in Table 4, below, were evaluated for antiviral activity against Zika virus, FSS 13025 strain (ZIKV, Cambodia 2010) and PR ABC strain (ZIKV, PR2015) in an yield reduction assay followed by a plaque assay.
In the yield reduction assay, Vero cells were seeded in 24-well plates and incubated overnight. The next day, serial dilutions of a given compound were prepared at 300 μM, 100 μM, 30 μM, 10 μM, and 3.0 μM. Growth medium was removed from the cells and the serial dilutions of the given compound were added in duplicate for one hour. Zika virus, FSS 13025 strain (ZIKV, Cambodia 2010) was added at a multiplicity of infection (MOI) of 0.01 for one hour. Growth medium was added to 1 mL and the cells were incubated for 4 days. Thereafter, cell supernatants were harvested, cleared of cell debris by centrifugation, and stored at −80° C. until further analysis for viral content in a plaque assay.
Plaque assays were performed by seeding Vero cells in 24-well plates and allowing the cells to adhere overnight. The next day each of the harvested supernatants from the yield-reduction assay were serially diluted 10-fold, growth medium was removed from the cells, and the adhered cells were infected with the dilutions of the supernatants for 1 h. Methylcellulose was added and the cells were incubated for 3 days. Plaques were visualized by staining the cell monolayer with crystal violet. Relative inhibition was calculated using IDBS XLFIT analysis program.
(§2) The duplicate titers for virus-only (vehicle control) were averaged and used as 0% inhibition. Efficacy data for the compounds were reported as the mean of the duplicates, including the standard deviation (SD) and coefficient of variation (% CV). FIGS. 2A, 2B, 3A, 3B, 4A, 4B, 5A, 5B, 6A, 6B, 7A, 7B, 8A, 8B, 9A, 9B, 10A, 10B, 11A, 11B, 12A, 12B, 13A, 13B, 14A, 14B, and 15 show the in vitro inhibitory effect of the iminosugar compounds against Zika virus, FSS 13025 strain, as set forth in Table 3 below.

The subject of data set [2] is Zika virus, PR ABC strain (ZIKV, PR2015). Description: Yield reduction assay followed by plaque assay in Vero cells, ZIKV PR2015. The data set is classed as cell-based. The settings on record: 120 h, read-out: ZIKV, PR2015 IC50. The procedure:
as §1
In the yield reduction assay, Vero cells were seeded in 24-well plates and incubated overnight. The next day, serial dilutions of a given compound were prepared at 200 μM, 100 μM, 20 μM, 4 μM, 0.8 μM, 0.16 μM, 0.03 μM, and 0.01 μM. Growth medium was removed from the cells and the serial dilutions of the given compound were added in duplicate for one hour. Zika virus, PR ABC strain (ZIKV, PR2015) was added at a multiplicity of infection (MOI) of 0.01 for one hour. Growth medium was added to 1 mL and the cells were incubated for 5 days. Thereafter, cell supernatants were harvested, cleared of cell debris by centrifugation, and stored at −80° C. until further analysis for viral content in a plaque assay.
Plaque assays were performed by seeding Vero cells in 24-well plates and allowing the cells to adhere overnight. The next day each of the harvested supernatants from the yield-reduction assay were serially diluted 10-fold, growth medium was removed from the cells, and the adhered cells were infected with the dilutions of the supernatants for 1 h. The cells were incubated with 0.8% carboxymethyl cellulose (CMC) for 3 days. At the end of the incubation, CMC overlay was removed, and the cells were permeabilized with an 80%/20% (V/V) mixture of ethanol and methanol for 10 min at −20° C. Plaques were visualized by performing an immunostaining assay with monoclonal 4G2 (ATCC) which was detected by HRP-conjugated goat anti-mouse antibody and visualized using HRP-conjugated goat anti-mouse polyclonal antibodies. Relative inhibition was calculated using IDBS XLFIT analysis program.
as §2

A short description of data set [3]: In vitro cell cytotoxicity (CellTiter-Glo) in Vero cells. The data set is classed as cell-based. The note with it: African green monkey, 3-5 days, max concentration 500 or 1000 μM, * = average of two values. On the technique in general: ATP-based viability assays read luminescence as a measure of living cells.
Data set [4] has as its system Zika virus (isolate FSS13025 of the Asian genotype). In words: Efficacy against lethal Zika virus infection in AG129 mice. In kind it is in vivo. The settings on record: 1E2 FFU Zika virus, 750 mg/kg once daily for three days by oral gavage, starting 16 hours after exposure, vs vehicle (FIG. 1). The procedure: AG129 mice, aged 5-7 weeks, of both sexes were divided into groups of eight mice each. Mice were infected with 1E2 FFU of Zika virus (isolate FSS13025 of the Asian genotype). The mice were treated 16 hours after exposure. One group was administered 750 mg/kg of UV-4 once daily for three days. UV-4 was formulated in water and all doses were administered via oral gavage in a volume of 100 μL. A control group was administered vehicle (water) only. Predefined study endpoints were mortality, euthanasia due to severe morbidity, or termination after 10 days total. Weights were measured and health scores were determined daily.

The mark [5] stands for this setting: Vero cells, MOI 0.01, 4 days, plaque assay of supernatants, * = average of multiple data points.
Setting [6] is: Vero cells, MOI 0.01, 5 days, plaque assay with immunostaining, * = average of multiple data points.

Like-named read-outs stand apart in the source and are kept apart here. Where only a bound is given, the exact number is not on record here.

In general, IC50 refers to the point on the concentration scale where inhibition reaches its midpoint. Usually CC50 stands for the concentration giving 50% cytotoxicity. For `OC[C@@H]1[C@@H](O)[C@H](O)[C@@H](O)CN1CCCCCCCCC1CCCO1` (stereo partly drawn) [Compound 1, (2R,3R,4R,5S)-2-(hydroxymethyl)-1-(8-(tetrahydrofuran-2-yl)octyl)piperidine-3,4,5-triol], the IC50 in data set [1] (setting [5]) was found to be 45.7 µM; in data set [2] (setting [6]) it was 69.6 µM. In addition, the CC50 in data set [3] is over 500 µM.

Consider `COC(C)(C)CCCCCCCCN1C[C@H](O)[C@@H](O)[C@H](O)[C@H]1CO` [Compound 2, (2R,3R,4R,5S)-2-(hydroxymethyl)-1-(9-methoxy-9-methyldecyl)piperidine-3,4,5-triol], for which the results for the IC50 in data set [1] (setting [5]) and in data set [2] (setting [6]) were 10.1 µM and 12.6 µM, respectively. Besides, the “IC50 (summary in words)” value in data set [1] is listed as “low micromolar activity”. Further, in data set [3], the CC50 was over 500 µM.

Consider `O=[N+]([O-])c1cc(N2CCOCC2)ccc1NCCCCCCN1C[C@H](O)[C@@H](O)[C@H](O)[C@H]1CO` [Compound 8, (2R,3R,4R,5S)-2-(hydroxymethyl)-1-(6-((4-morpholino-2-nitrophenyl)amino)hexyl)piperidine-3,4,5-triol], for which the IC50 in data set [1] (setting [5]) and in data set [2] (setting [6]) was over 100 µM throughout. In addition, the CC50 in data set [3] was over 1000 µM.

As for `CN(C)Cc1ccc(NCCCCCCN2C[C@H](O)[C@@H](O)[C@H](O)[C@H]2CO)c([N+](=O)[O-])c1` [Compound 11, (2R,3R,4R,5S)-1-(6-((4-((dimethylamino)methyl)-2-nitrophenyl)amino)hexyl)-2-(hydroxymethyl)piperidine-3,4,5-triol], the IC50 in data set [1] (setting [5]) and in data set [2] (setting [6]) was over 100 µM throughout. In data set [3], this compound had a CC50 of over 1000 µM.

For the compound `[N-]=[N+]=Nc1ccc([N+](=O)[O-])c(NCCCCCCN2C[C@H](O)[C@@H](O)[C@H](O)[C@H]2CO)c1` [Compound 12, (2R,3R,4R,5S)-1-(6-((5-azido-2-nitrophenyl)amino)hexyl)-2-(hydroxymethyl)piperidine-3,4,5-triol], the IC50 in data set [1] (setting [5]) came out at 38.7 µM; in data set [2] (setting [6]), 94.6 µM. Also, the “IC50 (summary in words)” value in data set [1] was “low micromolar activity”. In addition, half-maximal cytotoxicity in data set [3] (CC50) was put at 140 µM.

Turning to `CN1CCN(Cc2ccc(NCCCCCCN3C[C@H](O)[C@@H](O)[C@H](O)[C@H]3CO)c([N+](=O)[O-])c2)CC1` [Compound 15, (2R,3R,4R,5S)-2-(hydroxymethyl)-1-(6-((4-((4-methylpiperazin-1-yl)methyl)-2-nitrophenyl)amino)hexyl)piperidine-3,4,5-triol], the IC50 in data set [1] (setting [5]) amounted to 12.1 µM; in data set [2] (setting [6]) it was 150 µM. Further, the “IC50 (summary in words)” value in data set [1] is on record as “low micromolar activity”. Further, the CC50 in data set [3] is over 1000 µM.

On to `OC[C@@H]1[C@@H](O)[C@H](O)[C@@H](O)CN1CCCCCCNc1ncc2[nH]cnc2n1` [Compound 20, (2R,3R,4R,5S)-1-(6-((7H-purin-2-yl)amino)hexyl)-2-(hydroxymethyl)piperidine-3,4,5-triol], for which the IC50 in data set [2] (setting [6]) was over 100 µM. In addition, in data set [3], the CC50 amounted to 832 µM.

For `CCCOCCCCCCN1C[C@H](O)[C@@H](O)[C@H](O)[C@H]1CO` [UV-3, (2R,3R,4R,5S)-2-(hydroxymethyl)-1-(6-propoxyhexyl)piperidine-3,4,5-triol], the IC50 in data set [2] (setting [6]) is over 100 µM.

As to `COCCCCCCCCCN1C[C@H](O)[C@@H](O)[C@H](O)[C@H]1CO` [UV-4, (2R,3R,4R,5S)-2-(hydroxymethyl)-1-(9-methoxynonyl)piperidine-3,4,5-triol], the survival entry in data set [4] is listed as “statistically significant survival benefit”. The IC50 in data set [1] (Vero) and in data set [2] (Vero) was over 100 µM in each case. This compound also showed a CC50 in data set [3] of over 1000 µM.

Consider `[N-]=[N+]=Nc1ccc(NCCCCCCN2C[C@H](O)[C@@H](O)[C@H](O)[C@H]2CO)c([N+](=O)[O-])c1` [UV-5, (2R,3R,4R,5S)-1-(6-((4-azido-2-nitrophenyl)amino)hexyl)-2-(hydroxymethyl)piperidine-3,4,5-triol], for which the IC50 in data set [1] (Vero) was determined as 4.42 µM; in data set [2] (Vero) it was 5.24 µM. The “IC50 (summary in words)” value in data set [1] is reported as “low micromolar activity”. In data set [3], this compound displayed a CC50 of 77.3 µM.

Values taken from patent US20190282558A1, “Methods of Treating Zika Virus Infection” (Emergent Virology LLC, priority 2016, published 2019).
